Measurements from ChEMBL document CHEMBL3217477, “Synthesis and biological evaluation of substituted - and -2,3-dihydrofuran naphthoquinones as potent anticandidal agents” (Medchemcomm, 2010).
In brackets after ≈: the same amount, converted by molar mass.

Tests used:
Candida parapsilosis [1] = assay: Antifungal activity against Candida parapsilosis assessed as growth inhibition at 250 ug/mL after 24 hrs by hole plate diffusion method; format: functional; conditions: Lodderomyces parapsilosis, read-out: IZ
Candida dubliniensis [2] = assay: Antifungal activity against Candida dubliniensis assessed as growth inhibition at 250 ug/mL after 24 hrs by hole plate diffusion method; format: functional; conditions: read-out: IZ
Candida tropicalis [3] = assay: Antifungal activity against Candida tropicalis assessed as growth inhibition at 250 ug/mL after 24 hrs by hole plate diffusion method; format: functional; conditions: read-out: IZ
Candida tropicalis [4] = assay: Antifungal activity against Candida tropicalis assessed as growth inhibition after 24 hrs by microbroth dilution method; format: functional
Pichia kudriavzevii [5] = assay: Antifungal activity against Candida krusei assessed as growth inhibition at 250 ug/mL after 24 hrs by hole plate diffusion method; format: functional; conditions: read-out: IZ
Kluyveromyces marxianus [6] = assay: Antifungal activity against Candida kefyr assessed as growth inhibition after 24 hrs by microbroth dilution method; format: functional
Candida albicans [7] = assay: Antifungal activity against Candida albicans assessed as growth inhibition after 24 hrs by microbroth dilution method; format: functional
Pichia kudriavzevii [8] = assay: Antifungal activity against Candida krusei assessed as growth inhibition after 24 hrs by microbroth dilution method; format: functional
Candida albicans [9] = assay: Antifungal activity against Candida albicans assessed as growth inhibition at 250 ug/mL after 24 hrs by hole plate diffusion method; format: functional; conditions: read-out: IZ
[10] = Cytotoxicity against mouse NIH/3T3 cells assessed as dead cells at 12.5 ug/mL after 72 hrs by Alamar Blue assay relative to control; format: cell-based; conditions: nih3t3, 72 h
Candida parapsilosis [11] = assay: Antifungal activity against Candida parapsilosis assessed as growth inhibition after 24 hrs by microbroth dilution method; format: functional; conditions: Lodderomyces parapsilosis
Candida dubliniensis [12] = assay: Antifungal activity against Candida dubliniensis assessed as growth inhibition after 24 hrs by microbroth dilution method; format: functional
Kluyveromyces marxianus [13] = assay: Antifungal activity against Candida kefyr assessed as growth inhibition at 250 ug/mL after 24 hrs by hole plate diffusion method; format: functional; conditions: read-out: IZ
[14] = Hemolytic activity in Swiss mouse erythrocytes at 50 ug/mL after 1 hr by spectrophotometric analysis relative to control; format: ADME, cell-based, Erythrocyte; conditions: read-out: Activity
Candida albicans [15] = assay: Antifungal activity against Candida albicans ATCC 90028 assessed as growth inhibition after 24 hrs by microbroth dilution method; format: functional; conditions: ATCC 90028, 24 h

For `CC1(c2ccccc2)CC2=C(O1)c1ccccc1C(=O)C2=O` (configuration not stated), the zone of inhibition at 250 µg/mL (Candida parapsilosis [1]) was 7.34 mm, the zone of inhibition at 250 µg/mL (Candida dubliniensis [2]) was 12.9 mm and the zone of inhibition at 250 µg/mL (Candida tropicalis [3]) was 3.48 mm. It also gave an MIC (Candida tropicalis [4]) of 11.3 µM (≈ 3.28 µg/mL), a zone of inhibition at 250 µg/mL (Pichia kudriavzevii [5]) of 8.52 mm and an MIC (Kluyveromyces marxianus [6]) of 11.3 µM (≈ 3.28 µg/mL). For the same compound, the MIC (Candida albicans [7]) was 45.2 µM (≈ 13.1 µg/mL), the MIC (Pichia kudriavzevii [8]) was 22.6 µM (≈ 6.57 µg/mL) and the zone of inhibition at 250 µg/mL (Candida albicans [9]) was 8.41 mm. For the same compound, the mortality [10] was 0%, the MIC (Candida parapsilosis [11]) was 45.2 µM (≈ 13.1 µg/mL) and the MIC (Candida dubliniensis [12]) was 5.65 µM (≈ 1.64 µg/mL). The zone of inhibition at 250 µg/mL (Kluyveromyces marxianus [13]) was 10.1 mm, the hemolysis at 1 h, 50 ug/mL [14] was -1.2% and the MIC (Candida albicans [15]) was 45.2 µM (≈ 13.1 µg/mL).

For `CC1(C)CC2=C(O1)C(=O)c1ccccc1C2=O`, the zone of inhibition at 250 µg/mL (Candida parapsilosis [1]) was 9.29 mm, the zone of inhibition at 250 µg/mL (Candida dubliniensis [2]) was 15.2 mm and the zone of inhibition at 250 µg/mL (Candida tropicalis [3]) was 5.63 mm. The MIC (Candida tropicalis [4]) was 3.42 µM (≈ 0.781 µg/mL), the zone of inhibition at 250 µg/mL (Pichia kudriavzevii [5]) was 14.6 mm and the MIC (Kluyveromyces marxianus [6]) was 27.4 µM (≈ 6.25 µg/mL). The MIC (Candida albicans [7]) was 0.54 µM (≈ 0.123 µg/mL), the MIC (Pichia kudriavzevii [8]) was 13.4 µM (≈ 3.06 µg/mL) and the zone of inhibition at 250 µg/mL (Candida albicans [9]) was 21.3 mm. The mortality [10] was 20%, the MIC (Candida parapsilosis [11]) was 110 µM (≈ 25 µg/mL) and the MIC (Candida dubliniensis [12]) was 13.7 µM (≈ 3.12 µg/mL). For the same compound, the zone of inhibition at 250 µg/mL (Kluyveromyces marxianus [13]) was 18.4 mm, the hemolysis at 1 h, 50 ug/mL [14] was 2.1% and the MIC (Candida albicans [15]) was 54.8 µM (≈ 12.5 µg/mL).

`COc1cccc2c1C(=O)c1c(O)c3c(c(O)c1C2=O)C[C@@](O)(C(=O)CO)C[C@@H]3O[C@H]1C[C@H](N)[C@H](O)[C@H](C)O1` [DOXORUBICIN] showed a mortality [10] of 36%.

With `OC(Cn1cncn1)(Cn1cncn1)c1ccc(F)cc1F` [FLUCONAZOLE] the zone of inhibition at 250 µg/mL (Candida parapsilosis [1]) was 10.4 mm, the zone of inhibition at 250 µg/mL (Candida dubliniensis [2]) was 12.8 mm and the zone of inhibition at 250 µg/mL (Candida tropicalis [3]) was 15 mm. For the same compound, the MIC (Candida tropicalis [4]) was 313 µM (≈ 96 µg/mL), the zone of inhibition at 250 µg/mL (Pichia kudriavzevii [5]) was 9.64 mm and the MIC (Kluyveromyces marxianus [6]) was 1.63 µM (≈ 0.499 µg/mL). It also gave an MIC (Candida albicans [7]) of 1.63 µM (≈ 0.499 µg/mL), an MIC (Pichia kudriavzevii [8]) of 104 µM (≈ 32 µg/mL) and a zone of inhibition at 250 µg/mL (Candida albicans [9]) of 13 mm. The MIC (Candida parapsilosis [11]) was 1.63 µM (≈ 0.499 µg/mL), the MIC (Candida dubliniensis [12]) was 1.63 µM (≈ 0.499 µg/mL) and the zone of inhibition at 250 µg/mL (Kluyveromyces marxianus [13]) was 21.2 mm. It also gave an MIC (Candida albicans [15]) of 1.63 µM (≈ 0.499 µg/mL).

Compound `CCC(C)n1ncn(-c2ccc(N3CCN(c4ccc(OCC5COC(Cn6cncn6)(c6ccc(Cl)cc6Cl)O5)cc4)CC3)cc2)c1=O` (configuration not stated) [ITRACONAZOLE] has a zone of inhibition at 250 µg/mL (Candida parapsilosis [1]) of 26 mm, a zone of inhibition at 250 µg/mL (Candida dubliniensis [2]) of 19.4 mm and a zone of inhibition at 250 µg/mL (Candida tropicalis [3]) of 23.6 mm. For the same compound, the MIC (Candida tropicalis [4]) was 0.17 µM (≈ 0.12 µg/mL), the zone of inhibition at 250 µg/mL (Pichia kudriavzevii [5]) was 30.3 mm and the MIC (Kluyveromyces marxianus [6]) was 0.08 µM (≈ 0.0565 µg/mL). For the same compound, the MIC (Candida albicans [7]) was 4.42 µM (≈ 3.12 µg/mL), the MIC (Pichia kudriavzevii [8]) was 0.7 µM (≈ 0.494 µg/mL) and the zone of inhibition at 250 µg/mL (Candida albicans [9]) was 23.1 mm. For the same compound, the MIC (Candida parapsilosis [11]) was 0.02 µM (≈ 0.0141 µg/mL), the MIC (Candida dubliniensis [12]) was 0.02 µM (≈ 0.0141 µg/mL) and the zone of inhibition at 250 µg/mL (Kluyveromyces marxianus [13]) was 30.9 mm. The MIC (Candida albicans [15]) was 0.17 µM (≈ 0.12 µg/mL).
